Reference: ChEMBL document CHEMBL1201862, “PubChem BioAssay data set” (2004)
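Briefly, cells in 96-well plates were exposed to five compound concentrations for 48 h, and endpoints were estimated by linear interpolation. GI50 marks 50% less growth.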 The source made the active and inactive calls. Rule as the data show it: active = GI50 up to about 1.1 µM and inactive = higher.

Tests used:
Assay in all cases: NCI anticancer screen, dose series, 48 h
[1] = system: 786-0
[2] = system: A549
[3] = system: CAKI-1
[4] = system: CCRF-CEM
[5] = system: HCC 2998
[6] = system: HT-29
[7] = system: K562
[8] = system: OVCAR-8
[9] = system: SF-295
[10] = system: SNB-19
[11] = system: SR
[12] = system: TK-10
[13] = system: U-251
[14] = system: UACC-257
[15] = system: UACC-62
[16] = system: NCI-H460
[17] = system: OVCAR-4
[18] = system: DU-145

Measured: GI50

C/N=C(\SC)N(C)c1nc(=[N+](C)C)ss1.[O-][Cl+3]([O-])([O-])[O-]
inactive: [1] > 100 µM | [2] > 100 µM | [3] 52 µM | [4] 4.17 µM | [5] > 100 µM | [6] 4.22 µM | [7] 10.7 µM | [8] > 100 µM | [9] > 100 µM | [10] > 100 µM | [11] 56 µM | [12] > 100 µM | [13] > 100 µM | [14] > 100 µM | [15] 4.9 µM

COc1ccc(/C=C2\CCC(CCN3CCOCC3)C2=O)cc1 (configuration not stated)
inactive: [1] > 100 µM | [2] > 100 µM | [3] > 100 µM | [4] > 100 µM | [5] > 100 µM | [6] > 100 µM | [7] > 100 µM | [16] > 100 µM | [17] > 100 µM | [8] > 100 µM | [9] > 100 µM | [10] > 100 µM | [11] > 100 µM | [12] > 100 µM | [14] > 100 µM | [15] > 100 µM

CCNC(=O)O/N=C1/C=C2CC[C@@H]3C(CC[C@@]4(C)C3CC[C@@H]4OC(=O)NCC)[C@@]2(C)CC1 (some centres not stated)
inactive: [1] 3.23 µM | [2] 3.98 µM | [3] 4.26 µM | [5] 4.3 µM | [6] 3.27 µM | [7] 2.87 µM | [16] 3.46 µM | [17] 2.47 µM | [8] 4.32 µM | [9] 2.41 µM | [10] 2.48 µM | [12] 2.56 µM | [13] 2.42 µM | [14] 2.24 µM | [15] 2.67 µM

Cc1ccc(NC(=O)SCCC(=O)O)cc1NC(=O)SCCC(=O)O
inactive: [1] > 100 µM | [2] > 100 µM | [3] > 100 µM | [4] > 100 µM | [5] > 100 µM | [6] > 100 µM | [7] > 100 µM | [16] > 100 µM | [17] > 100 µM | [8] > 100 µM | [9] > 100 µM | [10] > 100 µM | [11] > 100 µM | [12] > 100 µM | [13] > 100 µM | [14] > 100 µM

Cc1ccc(S(=O)OC2c3ccccc3Cc3ccccc32)cc1 (configuration not stated)
inactive: [1] 21.7 µM | [2] 27.3 µM | [3] 17.3 µM | [5] 19.1 µM | [6] 32.1 µM | [7] 17.7 µM | [16] 22.3 µM | [17] 17.8 µM | [8] 15.6 µM | [9] 23.9 µM | [10] 23.8 µM | [11] 21.8 µM | [12] 21.1 µM | [13] 27.6 µM | [14] 19.3 µM | [15] 17.7 µM

Cn1c(=O)c2nc(-c3ccc(Cl)cc3)oc2n(C)c1=O
inactive: [1] > 100 µM | [2] > 100 µM | [3] > 100 µM | [4] > 100 µM | [5] > 100 µM | [6] > 100 µM | [7] > 100 µM | [16] > 100 µM | [17] > 100 µM | [8] > 100 µM | [9] > 100 µM | [10] > 100 µM | [11] > 100 µM | [12] > 100 µM | [13] > 100 µM | [14] > 100 µM | [15] > 100 µM

CCOc1c(Cc2ccccc2)c(=O)n2c3ccccc3n3c(=O)n(C)c(=O)c1c23
inactive: [1] > 100 µM | [2] > 100 µM | [3] > 100 µM | [5] > 100 µM | [6] > 100 µM | [16] > 100 µM | [17] > 100 µM | [8] > 100 µM | [9] 59.6 µM | [10] > 100 µM | [11] > 100 µM | [12] > 100 µM | [13] > 100 µM | [14] > 100 µM | [15] > 100 µM

CC(C)c1cccc(C(C)C)c1NC(=O)C(=O)C1SC(=S)NC1=O (configuration not stated)
inactive: [1] > 100 µM | [2] > 100 µM | [3] > 100 µM | [4] > 100 µM | [6] > 100 µM | [7] > 100 µM | [16] > 100 µM | [17] > 100 µM | [8] > 100 µM | [9] > 100 µM | [10] > 100 µM | [11] > 100 µM | [12] > 100 µM | [13] > 100 µM | [14] > 100 µM | [15] > 100 µM

O=c1cccccc1NCCCCCCCNc1cccccc1=O
inactive: [1] > 100 µM | [2] 21.8 µM | [3] 45.6 µM | [4] 13.4 µM | [6] 55.5 µM | [7] 17.8 µM | [16] 29.7 µM | [17] 27 µM | [8] 31.6 µM | [9] 34 µM | [10] 33.7 µM | [11] 22.1 µM | [13] > 10 µM | [14] 16.4 µM | [15] 19.4 µM

Cc1[nH]c2ccccc2c1CC/C(=N\Nc1ccccc1)c1ccccc1
inactive: [1] > 100 µM | [2] > 100 µM | [3] > 100 µM | [4] > 100 µM | [5] > 100 µM | [6] > 100 µM | [7] > 100 µM | [16] > 100 µM | [17] > 100 µM | [8] > 100 µM | [9] 94.6 µM | [12] > 100 µM | [13] > 100 µM | [14] > 100 µM | [15] > 100 µM

OC[C@@H]1CC#C/C=C\C#CC[C@@H]1CO
inactive: [1] > 100 µM | [3] > 100 µM | [5] > 100 µM | [6] > 100 µM | [7] > 100 µM | [17] > 100 µM | [8] > 100 µM | [9] > 100 µM | [10] > 100 µM | [12] > 100 µM | [13] > 100 µM

COC(=O)NN1C(C)=C(C(=O)OC)C2(C#N)C(C(=O)OC)=C(C)N(NC(=O)OC)C12N (configuration not stated)
inactive: [1] > 100 µM | [2] > 100 µM | [3] > 100 µM | [4] > 100 µM | [5] > 100 µM | [6] > 100 µM | [7] > 100 µM | [16] > 100 µM | [17] > 100 µM | [8] > 100 µM | [10] > 100 µM | [12] > 100 µM | [13] > 100 µM | [14] > 100 µM | [15] > 100 µM

N=C(N)N/N=C(/CCN1CCCC1)CC(c1ccccc1)c1c(O)c2ccccc2oc1=O (configuration not stated)
inactive: [1] > 100 µM | [2] > 100 µM | [3] > 100 µM | [4] > 10 µM | [5] > 100 µM | [6] > 100 µM | [7] > 100 µM | [17] > 100 µM | [9] > 100 µM | [10] > 100 µM | [12] > 100 µM | [14] > 100 µM | [15] > 100 µM

CN(C)CC1CCCC/C1=N/OC(=O)c1ccc(Cl)cc1 (configuration not stated)
inactive: [1] > 100 µM | [2] > 100 µM | [3] > 100 µM | [4] > 100 µM | [5] > 100 µM | [6] > 100 µM | [7] > 100 µM | [16] > 100 µM | [17] > 100 µM | [8] > 100 µM | [9] > 100 µM | [11] > 100 µM | [12] > 100 µM | [13] > 100 µM | [14] > 100 µM | [15] > 100 µM

N#CC(C(=O)C(=O)Nc1ccc(Cl)c(Cl)c1)c1ccc(Cl)cc1 (configuration not stated)
inactive: [1] 41 µM | [2] 97.3 µM | [3] > 100 µM | [4] 48.1 µM | [5] 51.9 µM | [6] 69.2 µM | [7] 23.4 µM | [16] 32.1 µM | [8] > 100 µM | [9] 87.9 µM | [10] 65.5 µM | [11] 51.9 µM | [12] > 100 µM | [13] 40.8 µM | [14] > 100 µM | [15] 30.5 µM

Cc1oc2nc(N(C)C)nc(Cl)c2c1C
inactive: [1] > 100 µM | [2] > 100 µM | [3] 49.4 µM | [4] > 100 µM | [18] > 100 µM | [5] > 100 µM | [6] > 100 µM | [7] > 100 µM | [16] > 100 µM | [17] 32.1 µM | [8] > 100 µM | [9] > 100 µM | [10] > 100 µM | [12] > 100 µM | [13] > 100 µM | [14] > 100 µM | [15] > 100 µM

CCCCCCCCCOC(=S)NCCCCC
inactive: [1] 35.6 µM | [2] 28.2 µM | [3] 27.8 µM | [4] 22.9 µM | [5] 34.4 µM | [6] 26.8 µM | [7] 27 µM | [16] 28 µM | [17] 33.9 µM | [8] 38.7 µM | [9] 47.1 µM | [10] 35.1 µM | [11] 20.5 µM | [12] 18.4 µM | [13] 21.7 µM | [14] 24.8 µM | [15] 29.2 µM

Cc1ccc(Oc2ccccc2N)cc1
inactive: [1] 21.2 µM | [2] 36.9 µM | [4] 7.03 µM | [5] 15.4 µM | [6] 37.2 µM | [7] 37.8 µM | [16] 37.8 µM | [17] 50.9 µM | [8] 79.3 µM | [9] 37.6 µM | [10] 78.5 µM | [11] 9.31 µM | [12] 88.1 µM | [13] 4.43 µM | [14] 52.5 µM | [15] 60.1 µM
